Test results from ChEMBL document CHEMBL1147191, “Structure-activity relationship studies on anti-HCV activity of ring-expanded ('fat') nucleobase analogues containing the imidazo[4,5-e][1,3]diazepine-4,8-dione ring system” (Bioorg Med Chem Lett, 2007).

How the values were obtained:
[1] = Cytotoxicity against Huh7 ET cells assessed as beta actin level relative to control; format: cell-based; design: concentration or dose not given beside the values; conditions: human
[2] = Selectivity index, ratio of toxicity against Huh7 ET cells to viral activity against HCV; format: functional
Hepatitis C virus = assay: Antiviral activity against HCV in Huh7 ET cells assessed as HCV RNA derived luciferase activity at 10 uM by replicon assay relative to control; format: functional, Hepacivirus hominis

SMILES	Activity [1]	Selectivity index [2]	Activity (Hepatitis C virus)
CCCCCCCCNc1nc(=O)c2c(nc(-c3ccc(OC)cc3)n2Cc2ccc(OC)cc2)c(=O)[nH]1	79%	1.463	54%
NC(=O)c1ncn([C@@H]2O[C@H](CO)[C@@H](O)[C@H]2O)n1 [RIBAVIRIN]	12%	0.42	89%
CCCCCCCCNc1nc(=O)c2c(nc(-c3ccccc3)n2Cc2ccc(OC)cc2)c(=O)[nH]1	82%	0.932	88%
CCCCCCCCNc1nc(=O)c2c(nc(C#CCCO)n2Cc2ccc(OC)cc2)c(=O)[nH]1	52%	0.578	90%
CCCCCCCCNc1nc(=O)c2c(nc(Br)n2Cc2ccc(OC)cc2)c(=O)[nH]1	69%	2.155	32%
